Several values for one entry are separate records, joined by “and”; a condition that tells them apart may be missing. Equal entries are not always repeated.

The assay has as its system 633275-114-R-J1-PDC complex spheroids, viability. Kind of assay: Anticancer human tumor 633275-114-R-J1-PDC patient-derived endometrial adenocarcinoma cell line growth inhibition [GQUAD]. The conditions noted are these: for viability, T/C: stronger effect = lower value. The source says:
DNA G-quadruplex Stabilizer Agents in Combinations in Complex Spheroids
A high-throughput screen of multi-cell type tumor spheroids was designed to identify active combinations of DNA G-quadruplex stabilizer agents and targeted small molecules. Complex spheroids include a stromal component modeled by human endothelial cells (HUVEC) and fibroblasts modeled by human mesenchymal stem cells (MSCs). The concentration ranges selected for each drug and investigational agent were based upon clinically achievable concentrations if the clinical Cmax of the agent was known.
Compounds. The drugs and investigational agents: pidnarulex (CX-5461; NSC782164), APTO-253 (NSC789042), BRACO-19 (NSC847499), peposertib (NSC802822), ceralasertib (NSC780249), elimusertib (NSC800525), camonsertib (NSC841442), AZD-1390 (NSC803789), olaparib (NSC753686), talazoparib (NSC767125), ART-558 (NSC835418), sotorasib (NSC818433), MRTX-1133 (NSC836407), SN-38 (NSC673596), topotecan (NSC609699), etoposide (NSC141540), doxorubicin (NSC123127), gemcitabine (NSC613327), 5-fluorouracil (NSC19893), paclitaxel (NSC125973), vemurafenib (NSC761431), panobinostat (NSC761190), R-306465 (JNJ-16241199; NSC773264), adavosertib (NSC754352), TP-3654 (NSC805149), carboplatin (NSC241240), KSQ-4279 (NSC840948), and staurosporine (NSC755774) were obtained from the National Cancer Institute (NCI) Developmental Therapeutics Program Chemical Repository (34). The FDA-approved anticancer drug set is available from the NCI Developmental Therapeutics Program. […] The stock solutions were prepared in dimethyl sulfoxide (DMSO, Sigma-Aldrich, St. Louis, MO, cat. D2650) at 800-fold the tested concentration and stored at -70 degrees C prior to their use. All drugs and investigational agents were tested over a range starting from a high concentration at or near the clinical Cmax and decreasing in half-log increments. If the clinical Cmax for an agent had not been determined, the highest concentration tested was 10 microM.
2.3 Cell Culture. All cells were maintained in an incubator at 37 degrees C and 5% CO2 with 95% humidity. The PDC lines were cultured according to standard operating procedures established by the NCI PDMR. All PDCs were thawed and cultured in Matrigel-coated flasks prepared with a working solution of 1X Ham's F-12 nutrient mix, without supplementation (Invitrogen, cat. 11765054), 100 U/mL penicillin-streptomycin (Invitrogen, cat. 15140122), and 2.5% Matrigel (Corning Inc., cat. 354248) for the first three passages. The 857933-349-R-J2-PDC line was cultured in 6C/Colon 1B media, which includes advanced DMEM/F-12 (Thermo Fisher Scientific, cat. 12634028), 10 mM HEPES (Thermo Fisher Scientific, cat. 15630080), 1X GlutaMAX supplement (Thermo Fisher Scientific, cat. 35050061), 0.1 mg/mL primocin (InvivoGen, cat. ant-pm-2), 10% defined fetal bovine serum, heat inactivated (HyClone Laboratories Inc., cat. SH30070.03HI), 50% L-WRN conditioned media (ATCC, cat. CRL-3276), 1.25 mM N-Acetyl-L-cysteine (Sigma-Aldrich, cat. A9165), 10 mM nicotinamide (Sigma-Aldrich, cat. N0636), 1X B-27 supplement (Thermo Fisher Scientific, cat. 17504044), 1X N-2 supplement (Thermo Fisher Scientific, cat. 17502048), 10 microM Y-27632 dihydrochloride (Tocris Bioscience, cat. 1254), and 50 ng/mL human EGF recombinant protein (Thermo Fisher Scientific, cat. PHG0311). The 485176-168-R4-J1-PDC line was cultured in Panc media, which includes all 6C/Colon 1B media components plus 100 ng/mL human FGF-10 (Thermo Fisher Scientific, cat. 100-26), 500 nM SB-431542 (Selleckchem, cat. S1067), and gastrin (Tocris, cat. 3006).
[…]
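Also: spheroids exposed to the agents for seven days.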
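For viability, T/C in this document: percent of DMSO vehicle control viability which is 100%.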

Consider `COc1cccc2c1C(=O)c1c(O)c3c(c(O)c1C2=O)CC(O)(C(=O)CO)CC3OC1CC(N)C(O)C(C)O1` (stereo not drawn), for which the viability, T/C is, setting by setting: (compound 0.0316 µM) 62% and 55.6% and 60.7%; (compound 0.1 µM) 45.2% and 39% and 44.2%; (compound 0.316 µM) 35.7% and 31.5% and 33%; (compound 1 µM) 21.9% and 16.8% and 22.1%; (compound 3.16 µM) 1.91% and 1.16% and 1.41%; (compound 10 µM) 2% and 1.77% and 1.5%. Where the note is “curve of compound”, the half-maximal inhibitory concentration (IC50) is 87.6 nM and 48.1 nM and 74.7 nM.

With `CC(C)(O)C1CCC(Nc2ccc3ncc(-c4cccc(C(F)(F)F)c4)n3n2)CC1` (stereo not drawn), the viability, T/C was 103% and 106% (2×) (compound 0.0316 µM); 94.8% and 101% and 89.9% (compound 0.1 µM); 95.2% and 87.9% and 105% (compound 0.316 µM); 68.7% and 71.4% and 61.6% (compound 1 µM); 29.8% and 33.2% and 29.4% (compound 3.16 µM); 35% and 33.7% and 39.8% (compound 10 µM). In addition, the IC50 (curve of compound) is 1810 nM and 2010 nM and 1640 nM.

For `Cn1ncnc1[C@H]1c2n[nH]c(=O)c3cc(F)cc(c23)N[C@@H]1c1ccc(F)cc1`, the viability, T/C runs as follows: (compound 0.000999 µM) 101% and 100% and 95.7%; (compound 0.00316 µM) 97.5% and 87.7% and 88.7%; (compound 0.00999 µM) 87.6% and 88.2% and 102%; (compound 0.0316 µM) 79% (2×) and 83.2%; (compound 0.0999 µM) 69.5% and 71% and 65.5%; (compound 0.316 µM) 56.5% and 57.2% and 61.5%. The IC50 (curve of compound) was > 316 nM.

Turning to `CC[C@@]1(O)C(=O)OCc2c1cc1n(c2=O)Cc2cc3c(CN(C)C)c(O)ccc3nc2-1`, the viability, T/C runs as follows: (compound 0.000999 µM) 95.5% and 106% and 99.4%; (compound 0.00316 µM) 97.2% and 89% and 87.9%; (compound 0.00999 µM) 86% and 86.5% and 92%; (compound 0.0316 µM) 68.2% and 70.6% and 66.2%; (compound 0.0999 µM) 41.4% and 40.2% and 45%; (compound 0.316 µM) 37.1% and 38.9% and 35.8%. In addition, the 50% inhibitory concentration (IC50) (curve of compound) is 71.7 nM and 79.8 nM and 73.9 nM.

As to `Cc1[nH]c2ccc(F)cc2c1-c1nc2c3cccnc3c3ncccc3c2[nH]1`, the viability, T/C (compound 0.0316 µM) was 104% [middle of 12 runs]; the viability, T/C (compound 0.1 µM) was 102% [middle of 12 runs]; the viability, T/C (compound 0.316 µM) is 99.1% [middle of 12 runs]; the viability, T/C (compound 1 µM) is 92.6% [middle of 12 runs]; the viability, T/C (compound 3.16 µM) is 73% [middle of 12 runs]; the viability, T/C (compound 10 µM) is 72.2% [middle of 12 runs]. Besides, the IC50 (compound alone, run of 03/18/2024) was > 10000 nM and the IC50 (compound alone, run of 03/26/2024) is > 10000 nM.

Consider `COc1ncnc(C2CC2)c1-c1ncc2cnn(Cc3ccc(-c4nc(C(F)(F)F)cn4C(C)C)cc3)c2n1`, for which the viability, T/C runs as follows: (compound 0.0316 µM) 91.5% and 91.7% and 98.3%; (compound 0.1 µM) 95.1% and 89.5% and 100%; (compound 0.316 µM) 86.6% and 85.3% and 100%; (compound 1 µM) 90.3% and 101% and 82.7%; (compound 3.16 µM) 98% and 106% and 95.6%; (compound 10 µM) 85% and 87.1% and 84.9%. Besides, the IC50 (curve of compound) is > 10000 nM.

Regarding `O=c1[nH]cc(F)c(=O)[nH]1`, the viability, T/C (compound 0.0316 µM) is 103% (2×) and 98.4%; the viability, T/C (compound 0.1 µM) is 90.1% and 99.8% and 94.7%; the viability, T/C (compound 0.316 µM) is 91.3% and 105% and 101%; the viability, T/C (compound 1 µM) was 95.9% and 91.8% and 94.2%; the viability, T/C (compound 3.16 µM) is 89.3% and 98.9% and 91.8%; the viability, T/C (compound 10 µM) is 77.6% and 72% and 67.4%. In addition, the IC50 (curve of compound) was > 10000 nM.

With `COc1ccc([C@@H](O)c2cc(-c3ncnc4cc(N5CCOCC5)ccc34)c(F)cc2Cl)nn1`, the viability, T/C is, setting by setting: (compound 0.0316 µM) 94.5% and 95% and 93.8%; (compound 0.1 µM) 98.8% and 89.7% and 92.3%; (compound 0.316 µM) 85.5% and 89.3% and 86.5%; (compound 1 µM) 73.6% and 74.7% and 67.5%; (compound 3.16 µM) 54.6% and 53.4% and 53.7%; (compound 10 µM) 35.3% and 42.5% and 31.2%. Also, for the setting “curve of compound”, the IC50 is 4050 nM and 4540 nM and 3480 nM.

Turning to `COc1ncnc(C2CC2)c1-c1ncc2cnn(Cc3ccc(-c4nc(C(F)(F)F)cn4C(C)C)cc3)c2n1` + CN(C)c1ccc(Nc2c3ccc(NC(=O)CCN4CCCC4)cc3nc3cc(NC(=O)CCN4CCCC4)ccc23)cc1, the IC50 was > 10000 nM (curve of first compound, second compound 0.0316 µM); > 10000 nM (curve of first compound, second compound 0.1 µM); > 10000 nM (curve of first compound, second compound 0.316 µM); > 10000 nM (curve of first compound, second compound 1 µM); > 10000 nM (curve of first compound, second compound 3.16 µM); < 31.6 nM (curve of first compound, second compound 10 µM). Moreover, the viability, T/C (second compound 0.0316 µM, first compound 0.0316 µM) was 102%; the viability, T/C (second compound 0.0316 µM, first compound 0.1 µM) was 102%; the viability, T/C (second compound 0.0316 µM, first compound 0.316 µM) was 84.5%; the viability, T/C (second compound 0.0316 µM, first compound 1 µM) is 101%; the viability, T/C (second compound 0.0316 µM, first compound 3.16 µM) was 102%; the viability, T/C (second compound 0.0316 µM, first compound 10 µM) is 95.4%. The viability, T/C runs as follows: (second compound 0.1 µM, first compound 0.0316 µM) 101%; (second compound 0.1 µM, first compound 0.1 µM) 90.8%; (second compound 0.1 µM, first compound 0.316 µM) 88.4%; (second compound 0.1 µM, first compound 1 µM) 99%; (second compound 0.1 µM, first compound 3.16 µM) 93.3%; (second compound 0.1 µM, first compound 10 µM) 87.3%. The viability, T/C reads like this: (second compound 0.316 µM, first compound 0.0316 µM) 86.8%; (second compound 0.316 µM, first compound 0.1 µM) 103%; (second compound 0.316 µM, first compound 0.316 µM) 86.8%; (second compound 0.316 µM, first compound 1 µM) 94.5%; (second compound 0.316 µM, first compound 3.16 µM) 97.2%; (second compound 0.316 µM, first compound 10 µM) 94%. Moreover, the viability, T/C is 89.3% (second compound 1 µM, first compound 0.0316 µM); 97.9% (second compound 1 µM, first compound 0.1 µM); 92.6% (second compound 1 µM, first compound 0.316 µM); 69.2% (second compound 1 µM, first compound 1 µM); 96.6% (second compound 1 µM, first compound 3.16 µM); 92.3% (second compound 1 µM, first compound 10 µM). Besides, the viability, T/C reads like this: (second compound 3.16 µM, first compound 0.0316 µM) 79.8%; (second compound 3.16 µM, first compound 0.1 µM) 81.7%; (second compound 3.16 µM, first compound 0.316 µM) 81.2%; (second compound 3.16 µM, first compound 1 µM) 76.1%; (second compound 3.16 µM, first compound 3.16 µM) 84.4%; (second compound 3.16 µM, first compound 10 µM) 67.8%. The viability, T/C is, setting by setting: (second compound 10 µM, first compound 0.0316 µM) 32.7%; (second compound 10 µM, first compound 0.1 µM) 30.2%; (second compound 10 µM, first compound 0.316 µM) 31.1%; (second compound 10 µM, first compound 1 µM) 27.2%; (second compound 10 µM, first compound 3.16 µM) 26.6%; (second compound 10 µM, first compound 10 µM) 12.8%.

`Cc1cccc(N(C)C(=O)C2C(O)CCN2c2nc(C)cc(C(F)(F)F)c2C#N)c1` (stereo not drawn): the viability, T/C is, setting by setting: (compound 0.0316 µM) 104% and 106% and 102%; (compound 0.1 µM) 87.3% and 93.7% and 107%; (compound 0.316 µM) 96.6% and 105% and 93%; (compound 1 µM) 99.8% and 93.9% and 87.2%; (compound 3.16 µM) 104% and 103% and 98.8%; (compound 10 µM) 96.2% and 95.4% and 92.5%. Moreover, the IC50 (curve of compound) is > 10000 nM.

Regarding `CC1COCCN1c1cc(C2(O)CC3CCC(C2)O3)c2cnn(-c3ccn[nH]3)c2n1` (stereo not drawn), the viability, T/C runs as follows: (compound 0.0316 µM) 70% and 78% and 77.7%; (compound 0.1 µM) 54.3% and 51.8% and 50.7%; (compound 0.316 µM) 29% and 32.2% and 29.2%; (compound 1 µM) 19.2% and 21% and 21.1%; (compound 3.16 µM) 13.5% (2×) and 15.8%; (compound 10 µM) 8.78% and 10.1% and 9.68%. Also, the IC50 (curve of compound) was 117 nM and 109 nM and 99.8 nM.

(Values after PubChem BioAssay AID2060505 (Molecular Pharmacology Branch, DTP, NCI, 2025).)
